These results are taken from patent US20230173082A1, “ANTIBACTERIAL PRODUCTS” (UNIVERSITY OF LINCOLN, priority 2014, published 2023).

The subject of one series is P. Aeruginosa 27853. Nature of the series: MIC testing (MIC/MBC), broth dilution. The class given is cell-based. The following applies: runs A, B, C, delivery agents with Moenomycin A at 1:2 ratio; for MIC: 24 hours at 37° C. On the procedure:
(§1) • The bacteria were grown in 5 ml of Mueller Hinton Broth overnight at 37° C. • The inhibitor was tested on its own or in conjunction with a cell penetrating peptide (CPP). • When tested with a CPP they were incubated together at room temperature for 1 hour before use. • Delivery agents (Compound 5, Compound 6, and 7) were used at a 1:2 ratio.

For another series, the system named is E. Coli 25922. Nature of the series: MIC testing (MIC/MBC), broth dilution. It is filed as cell-based. The following applies: delivery agents with Moenomycin A at 1:2 ratio. The method, then:
as §1
(In general: In broth dilution the organism is exposed to a series of concentrations in liquid medium.)

The test system of a further series is B. Subtilis 2410. The series can be described thus: MIC testing (MIC/MBC), broth dilution. The class given is cell-based. The following applies: delivery agents with Moenomycin A at 1:2 ratio. On the procedure:
as §1

In a further series the test system is A. Baumannii 19606. The series can be described thus: MIC testing (MIC/MBC), broth dilution. The class given is cell-based. The following applies: runs A, B, C, delivery agents with Moenomycin A at 1:2 ratio; for MIC: 24 hours at 37° C. On the procedure:
as §1

In a further series the test system is K. Pneumonia 700603. Nature of the series: MIC testing (MIC/MBC), broth dilution. The class given is cell-based. The settings on record: runs A, B, C, delivery agents with Moenomycin A at 1:2 ratio; for MIC: 24 hours at 37° C. On the procedure:
as §1

Another series relates to tumor cell line 786-O. The series can be described thus: In vitro cell viability in tumor cell line 786-O. It is filed as cell-based. The settings on record: initial in vitro testing.
In another series the test system is HeLa cells. Nature of the series: In vitro toxicity testing in HeLa cells. The class given is cell-based.
Series [1] has as its system mammalian cells.
Series [2] has as its system mammalian cells. The series can be described thus: Mammalian cytotoxicity (cell type not stated).
Where [3] appears, read: Escherichia coli, read-out: MBC.
Where [4] appears, read: Escherichia coli, read-out: MIC.
Setting [5] is: Bacillus subtilis, read-out: MBC.
Setting [6] is: Bacillus subtilis, read-out: MIC.
[7] abbreviates: Acinetobacter baumannii, read-out: MIC.
The mark [8] stands for this setting: Pseudomonas aeruginosa, read-out: MIC.
The mark [9] stands for this setting: Pseudomonas aeruginosa, read-out: MBC.

Molecules are shown by their SMILES. “And” between values parts separate entries of the source, which are not always exact repeats. Identical values can stand only once. Like-named read-outs stand apart in the source and are kept apart here.

Usually MIC stands for the lowest concentration found to suppress growth. What is called MBC is the smallest concentration meeting the test's criterion for killing. For the compound `CC1(C)S[C@@H]2[C@H](NC(=O)[C@H](N)c3ccccc3)C(=O)N2[C@H]1C(=O)O` [Ampicillin, reference compound], the minimal inhibitory concentration (MIC) result with P. Aeruginosa 27853 is “Growth in all wells”; in the series with E. Coli 25922 (setting [4]) it was 8 µg/mL; in the series with B. Subtilis 2410 (setting [6]), 128 µg/mL; in the series with A. Baumannii 19606 (setting [7]), 128 µg/mL; in the series on K. Pneumonia 700603, “Growth in all wells”. For the same compound, the minimal bactericidal concentration (MBC) result in the series on P. Aeruginosa 27853 is “Growth in all wells”; in the series on E. Coli 25922 (setting [3]), 8 µg/mL; in the series with B. Subtilis 2410 (setting [5]) it was 256 µg/mL; with A. Baumannii 19606 it was “Growth in all wells”; in the series with K. Pneumonia 700603, “Growth in all wells”.
For the compound `CCCCCCCCCCCCCCCCCC(=O)OC(COCC(COC(=O)NCCCN(C)CCCN)OC(=O)NCCCN(C)CCCN)COCC(COC(=O)NCCCN(C)CCCN)OC(=O)NCCCN(C)CCCN` (centres unmarked) [Compound 5], the MIC was 256 µg/mL in the series on P. Aeruginosa 27853 (setting [8]); 64 µg/mL in the series with E. Coli 25922 (setting [4]); 32 µg/mL in the series with B. Subtilis 2410 (setting [6]); 128 µg/mL in the series with K. Pneumonia 700603 (Klebsiella pneumoniae, 24 h, read-out: MIC); 64 µg/mL in the series with K. Pneumonia 700603. For the same compound, the MBC is 256 µg/mL in the series on P. Aeruginosa 27853 (setting [9]); 128 µg/mL with E. Coli 25922 (setting [3]); 32 µg/mL in the series on B. Subtilis 2410 (setting [5]); 128 µg/mL with K. Pneumonia 700603 (Klebsiella pneumoniae, read-out: MBC); 64 µg/mL in the series with K. Pneumonia 700603.
As for `CCCCCCCCCCCCCCCCCC(=O)OC(COC(COCC(COC(=O)NCCCN(C)CCCN)OC(=O)NCCCN(C)CCCN)COCC(COC(=O)NCCCN(C)CCCN)OC(=O)NCCCN(C)CCCN)COC(COCC(COC(=O)NCCCN(C)CCCN)OC(=O)NCCCN(C)CCCN)COCC(COC(=O)NCCCN(C)CCCN)OC(=O)NCCCN(C)CCCN` (centres unmarked) [Compound 6], the “effect on cell viability” value in the series on tumor cell line 786-O is reported as “did not affect the cell viability”. The MIC in the series on P. Aeruginosa 27853 (setting [8]) was determined as 256 µg/mL; in the series with E. Coli 25922 (setting [4]) it was 256 µg/mL; with B. Subtilis 2410 (setting [6]), 32 µg/mL; in the series with A. Baumannii 19606 (setting [7]), 256 µg/mL. In addition, the minimal bactericidal concentration (MBC) in the series on P. Aeruginosa 27853 (setting [9]) amounted to 256 µg/mL; in the series with B. Subtilis 2410 (setting [5]) it was 32 µg/mL; in the series on A. Baumannii 19606 (Acinetobacter baumannii, read-out: MBC), 256 µg/mL. In addition, the “concentration at which toxic” value in the series with HeLa cells is 20000 ng/mL.
Turning to `N=C(N)NCCNC(=O)CCN(CCC(=O)NCCNC(=N)N)CCN(CCC(=O)NCCNC(=N)N)CCC(=O)NCCNC(=N)N` [Compound 7, 3,3’,3”,3”’-(Ethane-1,2-Divlbis(Azanetrivl)) Tetrakis(N-(2-Guanidinoethyl)Propanamide)], the MIC entry with P. Aeruginosa 27853, in the series with A. Baumannii 19606 and with K. Pneumonia 700603 was “Growth in all wells” throughout. Also, the minimal bactericidal concentration (MBC) result in the series with P. Aeruginosa 27853, in the series with A. Baumannii 19606 and in the series with K. Pneumonia 700603 was “Growth in all wells” throughout.
In the case of `C#CC(=O)N[C@@H](CCCNC(=N)N)C(=O)N[C@@H](CCCNC(=N)N)C(=O)N[C@@H](CCCNC(=N)N)C(=O)N[C@@H](CCCNC(=N)N)C(=O)N[C@@H](CCCNC(=N)N)C(=O)N[C@@H](CCCNC(=N)N)C(=O)N[C@@H](CCCNC(=N)N)C(=O)N[C@@H](CCCNC(=N)N)C(N)=O` [Compound 8], the “concentration up to which no toxicity was observed” value with mammalian cells [1] is given as “up to 110 µg/mL”.
Turning to `C=C(C/C=C(\C)CCC=C(C)C)CCC(C)(C)/C=C/CC/C(C)=C/CO[C@@H](COP(=O)(O)O[C@H]1O[C@H](C(N)=O)[C@@](C)(O)[C@H](OC(N)=O)[C@H]1O[C@@H]1O[C@H](CO[C@@H]2O[C@H](CO)[C@@H](O)[C@H](O)[C@H]2O)[C@@H](O[C@@H]2O[C@H](C)[C@@H](O[C@@H]3O[C@H](C(=O)NC4=C(O)CCC4=O)[C@H](O)[C@H](O)[C@H]3O)[C@H](O)[C@H]2NC(C)=O)[C@H](O)[C@H]1NC(C)=O)C(=O)O` [Moenomycin A, reference compound], the minimum inhibitory concentration (MIC) in the series on P. Aeruginosa 27853 was 256 µg/mL; with E. Coli 25922, 32 µg/mL; in the series on B. Subtilis 2410 it was 256 µg/mL; with A. Baumannii 19606 it was 4 µg/mL and 8 µg/mL; in the series with K. Pneumonia 700603 it was 64 µg/mL. Also, the minimum bactericidal concentration (MBC) entry in the series with P. Aeruginosa 27853 is “Growth in all wells”; in the series on E. Coli 25922, 128 µg/mL; with B. Subtilis 2410 it was “Growth in all wells”; in the series with A. Baumannii 19606 it was 8 µg/mL; with K. Pneumonia 700603, 128 µg/mL. For the same compound, the “concentration up to which no toxicity was observed” value with mammalian cells [2] is recorded as “up to 10 mg/mL”.
